Test results taken from patent US20040029926A1 (priority 2000, published 2004).

Test: Solubility in water, visual, confirmed by HPLC assay of a saturated solution
Assay type: physicochemical
Conditions: thermodynamic from solid
Method: Solubility of the Nitrate
The visual solubility was confirmed by an HPLC assay of a saturated solution. Solubility: 6 mg/ml.

SMILES: CN(CCOc1ccc(CC2SC(=O)NC2=O)cc1)c1ccccn1.O=[N+]([O-])O (stereo not shown) [Nitrate, 5-[4-[2-(N-methyl-N-(2-pyridyl)amino)ethoxy]benzyl]thiazolidine-2,4-dione nitrate]
- solubility: 6000 µg/mL
